We go through one compound from patent US12590953B2, “Methods for screening cereblon modifying compounds” (CELGENE CORPORATION, priority 2018, dated 2026).

Entries after “also recorded” stand apart in the source; their conditions may differ.

The subject of assay [1] is rabbit SALL4 zinc finger / rabbit cereblon. The experiment in a line: In vitro ubiquitination of rabbit SALL4 zinc finger by rabbit cereblon. It is filed as biochemical. As to conditions: rabbit zinc finger amino acids 357-385; with thalidomide. The procedure:
Full length human cereblon, full length mouse cereblon, and full length rabbit cereblon were co-expressed with full length human DDB1 in SF9 insect cells in ESF921 medium in the presence of 50 uM zinc acetate. Cells were resuspended in buffer containing 50 mM Tris-HCl pH 7.5, 500 mM NaCl, 10 mM imidazole, 10% glycerol, 2 mM TCEP, 1× Protease Inhibitor Cocktail (San Diego Bioscience), and 40,000 U Benzonase (Novagen), and sonicated for 30 s. Lysate was clarified by high speed spin at 30,000 rpm for 30 minutes, and clarified lysate was incubated with Ni-NTA affinity resin (Qiagen) for 1 hour. Complex was eluted with buffer containing 500 mM imidazole, and the ZZ-domain-6×His tag removed by thrombin cleavage (Enzyme Research) overnight, combined with dialysis in 10 mM imidazole buffer. Cleaved eluate was incubated with Ni-NTA affinity resin (Qiagen), and the flow-through diluted to 200 mM NaCl for further purification over a Sephacryl S-400 16/60 column (GE Healthcare) in buffer containing 10 mM HEPES pH 7.0, 240 mM NaCl, and 3 mM TECP.
Purified E1, E2, ubiquitin, Cul4A-Rbx1, cereblon-DDB1, and GSPT1 proteins were used to reconstitute the ubiquitination of MBP-fused WT and mutant proteins in vitro. Substrate proteins purified by maltose affinity resin (NEB) were incubated at an approximate concentration of 30 uM. […]

A further assay deals with ZFP91 (Mus musculus, UniProt Q62511). The experiment in a line: ZFP91 immunohistochemistry in huCRBN mouse testis. It is filed as in vivo. More on the design: from tissue; host or cells: testis of homozygous huCRBN knock-in mice. As to conditions: huCRBN mice, 1000 mg/kg for 7 days. The procedure: The SALL4 and ZFP91 protein levels were examined by immunohistochemistry in rabbit, wild-type mouse, and humanized cereblon mouse testes. […] HuCRBN Mice were treated for 7 days and testis were collected and examined by immunohistochemistry (n=3 animals per treatment group per species).
Chain of ZFP91 (Q62511 whole entry): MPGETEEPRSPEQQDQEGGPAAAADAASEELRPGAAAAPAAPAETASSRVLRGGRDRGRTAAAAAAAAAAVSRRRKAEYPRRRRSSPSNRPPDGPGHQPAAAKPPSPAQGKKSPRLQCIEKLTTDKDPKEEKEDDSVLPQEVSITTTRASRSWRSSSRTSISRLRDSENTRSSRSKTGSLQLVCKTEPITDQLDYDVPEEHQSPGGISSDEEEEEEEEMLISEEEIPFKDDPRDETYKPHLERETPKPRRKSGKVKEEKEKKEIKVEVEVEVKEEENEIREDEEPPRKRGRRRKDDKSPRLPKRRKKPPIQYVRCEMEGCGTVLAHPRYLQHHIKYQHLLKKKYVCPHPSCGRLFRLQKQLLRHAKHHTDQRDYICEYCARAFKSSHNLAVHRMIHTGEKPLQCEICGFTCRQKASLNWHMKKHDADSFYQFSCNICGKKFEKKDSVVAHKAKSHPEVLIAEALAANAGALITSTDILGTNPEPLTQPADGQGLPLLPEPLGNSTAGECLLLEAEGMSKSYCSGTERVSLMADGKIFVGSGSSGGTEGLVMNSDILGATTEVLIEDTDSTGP
Chain of ZFP91 (Q96SW2 whole entry, further chain): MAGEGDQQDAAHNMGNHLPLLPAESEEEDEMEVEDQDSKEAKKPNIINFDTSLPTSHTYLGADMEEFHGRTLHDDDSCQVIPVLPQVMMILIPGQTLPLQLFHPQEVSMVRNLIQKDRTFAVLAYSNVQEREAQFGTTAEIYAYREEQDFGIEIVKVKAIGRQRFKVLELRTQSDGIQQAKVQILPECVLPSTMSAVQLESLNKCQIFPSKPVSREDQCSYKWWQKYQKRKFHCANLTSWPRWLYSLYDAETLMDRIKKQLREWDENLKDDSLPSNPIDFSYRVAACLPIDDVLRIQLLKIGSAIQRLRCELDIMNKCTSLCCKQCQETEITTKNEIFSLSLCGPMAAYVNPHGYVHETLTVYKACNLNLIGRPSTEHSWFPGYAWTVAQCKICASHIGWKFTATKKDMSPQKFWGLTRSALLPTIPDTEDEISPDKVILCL
Chain of ZFP91 (Q3U1J4 whole entry partner): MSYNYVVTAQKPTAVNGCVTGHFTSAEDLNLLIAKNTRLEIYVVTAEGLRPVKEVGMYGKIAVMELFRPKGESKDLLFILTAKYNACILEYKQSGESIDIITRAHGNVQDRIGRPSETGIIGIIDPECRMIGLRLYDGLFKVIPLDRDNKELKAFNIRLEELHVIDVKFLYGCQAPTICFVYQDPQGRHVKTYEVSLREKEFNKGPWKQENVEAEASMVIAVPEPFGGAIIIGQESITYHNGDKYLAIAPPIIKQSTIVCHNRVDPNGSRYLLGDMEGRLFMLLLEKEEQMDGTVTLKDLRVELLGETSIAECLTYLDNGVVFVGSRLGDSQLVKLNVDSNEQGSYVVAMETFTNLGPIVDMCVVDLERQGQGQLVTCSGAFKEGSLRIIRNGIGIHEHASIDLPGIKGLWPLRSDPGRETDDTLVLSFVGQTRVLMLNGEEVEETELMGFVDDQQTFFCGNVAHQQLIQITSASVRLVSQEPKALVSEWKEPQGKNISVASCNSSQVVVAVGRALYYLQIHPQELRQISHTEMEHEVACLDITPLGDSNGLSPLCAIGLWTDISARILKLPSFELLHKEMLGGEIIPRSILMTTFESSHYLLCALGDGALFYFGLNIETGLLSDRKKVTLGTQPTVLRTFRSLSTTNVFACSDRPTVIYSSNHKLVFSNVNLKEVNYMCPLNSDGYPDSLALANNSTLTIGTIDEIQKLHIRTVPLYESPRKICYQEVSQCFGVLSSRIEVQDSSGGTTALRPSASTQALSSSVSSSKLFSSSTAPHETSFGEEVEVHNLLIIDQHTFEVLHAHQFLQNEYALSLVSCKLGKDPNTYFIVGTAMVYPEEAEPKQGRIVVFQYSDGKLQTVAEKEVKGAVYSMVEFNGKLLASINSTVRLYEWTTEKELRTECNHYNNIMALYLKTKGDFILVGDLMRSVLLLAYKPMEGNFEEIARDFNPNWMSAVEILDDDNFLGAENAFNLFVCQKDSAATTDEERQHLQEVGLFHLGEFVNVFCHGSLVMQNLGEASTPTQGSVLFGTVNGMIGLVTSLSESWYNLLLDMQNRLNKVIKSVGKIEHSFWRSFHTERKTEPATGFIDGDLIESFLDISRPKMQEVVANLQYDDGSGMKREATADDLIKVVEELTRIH
Rabbit embryos were stained for SALL4, and mouse testis were stained for SALL4 and ZFP91. Immunohistochemistry (IHC) was performed on the Bond-III automated slide stainer (Leica Microsystems, Buffalo Grove, Ill.) using the Bond Polymer Refine Detection system (Leica Microsystems, DS9800). Formalin fixed paraffin embedded (FFPE) tissues were sectioned at four micron thick and deparaffinized on the Bond-Max instrument. Antigen retrieval was performed with Epitope Retrieval 2 (ER2, pH 9.0) for 20 min at 100° C. The slides were blocked for endogenous peroxidase activity with Peroxide Block for 5 minutes at room temperature. Sections were then incubated with the mouse monoclonal anti-SALL4 EE-30 antibody (Santa Cruz, sc-101147) at a 1:100 dilution for 60 min at room temperature, or with the rabbit monoclonal anti-ZFP91 antibody (Celgene custom clone 122-8-6) at 0.25 ug/ml. For mouse testis, primary antibodies were incubated for 15 min at room temperature, and Post-Primary and horseradish peroxidase (HRP) labeled Polymer were incubated at the instrument's default conditions. […]

`O=C1CCC(N2C(=O)c3ccccc3C2=O)C(=O)N1` (centres unmarked) [thalidomide]: in assay [1], the “Ubiquitination of rabbit SALL4 zinc finger (orthologous to human ZF2) by rabbit cereblon” value is “could be ubiquitinated by rabbit cereblon in a thalidomide-dependent manner”. The “ZFP91 protein levels in testis” value on ZFP91 is on record as “robustly downregulated; also recorded: caused degradation of ZFP91 but not SALL4”.
